Experimental data: patent US11229634B2, “Methods for treating gastrointestinal disorders using FXR agonists” (Novartis AG, priority 2016, dated 2022)
Values after ≈ are worked out from the molar mass of the structure shown. “Also recorded” adds a separate entry of the source.

Assays:
ANIT-induced cholestasis [1] = assay: Chronic treatment rat ANIT model of cholestasis, serum markers; assay type: in vivo; settings: oral dosing 0.01 to 3 mg/kg
Experimental: Rats were treated with alpha-naphthyl-isothiocyanate (ANIT) (0.1% w/w) in food for 3 days prior to treatment with the compound at the indicated doses or with vehicle control (“Veh”). A non-cholestatic control group was fed standard chow diet without ANIT, and serve as the non-cholestatic control animals (“Control”), After […] days of oral dosing, the indicated analyte was measured in serum. LLQ, lower limit of quantitation. Mean±SEM; n=5.

ANIT-induced cholestasis [2] = assay: PK/PD modeling of effective exposure in rat ANIT chronic treatment model; assay type: in vivo; settings: drug concentration producing 80% of maximum effect
Experimental: Male Wistar rats were treated with ANIT (0.1% ANIT in chow diet) for 2 weeks. […] The serum samples were collected on day 14 for analysis of biomarkers of hepatobiliary injury (including ALT, AST, bilirubin and bile acids). The PK samples (pre-dose, 0.5, 1, 3, 7, 10 and 24 h, n=3/dose group) were taken on day 13 (at steady-state). AUC0-24 h was determined using Phoenix WinNonlin 6.3 software and the average concentrations were calculated from mean of AUC0-24 h at each dose (divided the AUC0-24 h by 24 h). The mean biomarker data were compared to the PK data (average concentration at each dose) for the modeling. The IC80 was determined using the Inhibitory effect Imax model (effect C=0 at Imax, C=infinity at E0) built in Phoenix WinNonlin 6.3 software. […] Therefore, we chose to use a mean of the IC80 for the four biomarkers (total bilirubin, total bile acids, ALT and AST) as the IC80 for efficacy in this model. […]
The PK samples (pre-dose, 0.5, 1, 3, 7, 10 and 24 h, n=3/dose group) were taken on day 13 (at steady-state). AUC0-24 h was determined using Phoenix WinNonlin 6.3 software and the average concentrations were calculated from mean of AUC0-24 h at each dose (divided the AUC0-24 h by 24 h). […] The IC80 was determined using the Inhibitory effect Imax model (effect C=0 at Imax, C=infinity at E0) built in Phoenix WinNonlin 6.3 software.

[3] = Single oral dose plasma pharmacokinetics in healthy subjects; assay type: in vivo; settings: dose range 10 μg to 3000 μg, human
[4] = Multiple oral dose plasma pharmacokinetics in healthy subjects; assay type: in vivo; settings: human
[5] = Food effect (high-fat meal vs fasted) on pharmacokinetics; assay type: in vivo; settings: human
Experimental: To avoid variability in drug exposure, it is recommended that throughout the treatment period, patients will be directed to take study drug at home with ˜240 mL (8 ounces) of water in the morning in a fasting state, at least 30 min prior to the first beverage apart from water and 60 min prior to first meal of the day, preferably at the same time of the day.

[6] = Safety and tolerability in healthy subjects; assay type: in vivo, human; settings: repeated daily 100 μg; one ALT>ULN, one ALT>3×ULN, one ALT>5×ULN
[7] = Estimation of human efficacious dose from rat efficacious exposure and human PK; settings: human, plasma, oral, 6 μg; estimated, molar
Experimental: The human efficacy dose was calculated based on the efficacious exposure in the rat ANIT-induced disease model. Since the in vitro potency and protein binding between human and rat were similar, the EC80 exposure in human was assumed to be the same as that in rat (3.05 ng*h/mL),

FGF19 = settings: single and repeated dosing, human
FXR = target: T1, FXR (Homo sapiens, UniProt Q96RI1); settings: clinical studies in PBC or NASH subjects; cited from earlier work
T1 construct: OCA was tested at doses between 5 mg and 50 mg in PBC subjects or NASH subjects; host or cells: human subjects (PBC, NASH), endogenous receptor
T1 sequence (Q96RI1 1-486): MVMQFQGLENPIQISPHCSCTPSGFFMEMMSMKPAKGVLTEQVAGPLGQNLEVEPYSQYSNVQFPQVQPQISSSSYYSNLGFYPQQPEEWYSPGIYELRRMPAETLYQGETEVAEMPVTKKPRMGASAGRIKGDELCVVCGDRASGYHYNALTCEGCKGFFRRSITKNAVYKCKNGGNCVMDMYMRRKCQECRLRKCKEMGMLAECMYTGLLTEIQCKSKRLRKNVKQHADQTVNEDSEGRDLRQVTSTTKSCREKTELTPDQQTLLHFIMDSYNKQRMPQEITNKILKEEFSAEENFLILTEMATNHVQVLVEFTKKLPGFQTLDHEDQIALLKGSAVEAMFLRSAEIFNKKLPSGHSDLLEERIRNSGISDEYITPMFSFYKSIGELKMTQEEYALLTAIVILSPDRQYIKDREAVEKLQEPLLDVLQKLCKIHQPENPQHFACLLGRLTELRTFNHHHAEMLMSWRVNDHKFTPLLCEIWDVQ

| SMILES | dose from which hepatobiliary injury indicators (AST, ALT, bilirubin, bile acids) improved (ANIT-induced cholestasis [1]) [mg/kg] | IC80, total bilirubin (ANIT-induced cholestasis [2]) [ng/mL] | dose dependence of mean Cmax and AUCinf [3] | dose dependence of Cmax and AUC (AUCtau/AUCinf), plasma exposure ([4]; multiple once daily doses, dose range 10 μg to 100 μg) | day by which steady-state was reached ([4]; once daily oral dosing 10-100 μg, trough levels) [days] | median Tmax, fasted state ([5]; fasted comparator of food effect) [h] | increase of mean AUCinf with high-fat meal compared to the fasted state [5] | increase of mean Cmax with high-fat meal compared to the fasted state [5] | subjects with elevation of transaminases (ALT and AST) [6] [subjects] | Cmax [7] [nM] | FGF19 response to dose (FGF19) | side effect associated with treatment (FXR) |
| --- | --- | --- | --- | --- | --- | --- | --- | --- | --- | --- | --- | --- |
| O=C(O)c1cc(F)c2nc(N3C4CC[C@H]3CC(OCc3c(-c5ccccc5OC(F)(F)F)noc3C3CC3)C4)sc2c1 (stereo partly drawn) [Compound A, 2-[(1R,3r,5S)-3-({5-cyclopropyl-3-[2-(trifluoromethoxy)phenyl]-1,2-oxazol-4-yl}methoxy)-8-azabicyclo[3.2.1]octan-8-yl]-4-fluoro-1,3-benzothiazole-S-carboxylic acid] | 0.01 | 0.223 (≈ 0.369 nM) | approximately dose proportional increase | approximately dose-proportional increase; also recorded: approximately dose proportional increase | ≤ 4 | 4 | approximately 60% | approximately 60% | 3 | ~0.3 | dose-dependent increases in FGF19 |  |
| CC[C@H]1[C@@H](O)[C@@H]2[C@H](CC[C@]3(C)[C@@H]([C@H](C)CCC(=O)O)CC[C@@H]23)[C@@]2(C)CC[C@@H](O)C[C@@H]12 [OCA, 6α-ethyl-chenodeoxycholic acid] |  |  |  |  |  |  |  |  |  |  |  | increased pruritus |
